According to ChEMBL document CHEMBL1149956, “Synthesis and biological evaluation of new 5-HPETE analogs” (Bioorg Med Chem Lett, 1994):
Activity calls are given as the source filed them. The rule behind the calls is not given here.

Experiments:
[1] = target: T1, Polyunsaturated fatty acid 5-lipoxygenase (Homo sapiens) (UniProt P09917); assay: Tested for the inhibition of 5-lipoxygenase from human polymorphonuclear leukocytes(PMN) at 10 uM concentration of the compound; value ranges from 70-90
T1 sequence (whole entry): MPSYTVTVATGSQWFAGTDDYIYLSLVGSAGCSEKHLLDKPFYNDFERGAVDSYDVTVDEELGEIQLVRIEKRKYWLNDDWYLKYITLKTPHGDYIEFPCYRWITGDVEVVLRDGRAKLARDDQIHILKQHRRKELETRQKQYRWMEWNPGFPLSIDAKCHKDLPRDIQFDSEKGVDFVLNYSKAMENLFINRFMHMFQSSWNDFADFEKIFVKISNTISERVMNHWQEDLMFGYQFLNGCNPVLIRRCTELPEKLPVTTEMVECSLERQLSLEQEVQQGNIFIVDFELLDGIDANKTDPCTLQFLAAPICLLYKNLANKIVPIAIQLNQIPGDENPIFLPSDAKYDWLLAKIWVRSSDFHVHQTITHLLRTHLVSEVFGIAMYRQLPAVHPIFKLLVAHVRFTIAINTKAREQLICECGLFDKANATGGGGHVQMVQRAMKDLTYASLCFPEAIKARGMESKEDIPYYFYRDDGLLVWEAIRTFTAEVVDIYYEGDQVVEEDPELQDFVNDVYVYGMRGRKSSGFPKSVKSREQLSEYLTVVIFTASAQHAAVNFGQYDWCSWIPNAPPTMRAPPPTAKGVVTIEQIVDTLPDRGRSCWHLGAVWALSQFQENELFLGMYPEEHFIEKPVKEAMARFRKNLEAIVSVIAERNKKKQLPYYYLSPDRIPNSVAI

[2] = target: T1, Polyunsaturated fatty acid 5-lipoxygenase (Homo sapiens); assay: Tested for the inhibition of 5-lipoxygenase from human polymorphonuclear leukocytes(PMN) at 10 uM concentration of the compound; IA= Inactive

SMILES: CCCCCCCCCCC/C=C\C=C\C1CC(CC(=O)OC)=NO1 (stereo not given)
- inhibition [1]: 70%

SMILES: CCCCC/C=C\C/C=C\C/C=C\C=C\c1cc(CC(=O)OC)no1
- inhibition [1]: 70%

SMILES: CCCCC/C=C\C/C=C\C/C=C\C=C\C1CC(CC(=O)OC)=NO1 (stereo not given)
- inhibition [2]: inactive

SMILES: CCCCCCCCCCC/C=C\C=C\c1cc(C/C=N/O)no1
- inhibition [2]: inactive

SMILES: CCCCCCCCCCC/C=C\C=C\c1cc(CC(=O)OC)no1
- inhibition [1]: 70%
